The results in this text go back to paper PMC11187126, “Structure and dynamics of the pyroglutamylated RF-amide peptide QRFP receptor GPR103” (Nature Communications, 2024).

The experiment has as its target T1, GPR103 Y29N-termA (Homo sapiens, UniProt Q96P65, Y29A).
T1 construct: we used human full-length QRFPR-encoding plasmids; expressed in transfected cells; host or cells: HEK293 cells, pCAGGS vector
T1 sequence (Q96P65 1-431 Y29A): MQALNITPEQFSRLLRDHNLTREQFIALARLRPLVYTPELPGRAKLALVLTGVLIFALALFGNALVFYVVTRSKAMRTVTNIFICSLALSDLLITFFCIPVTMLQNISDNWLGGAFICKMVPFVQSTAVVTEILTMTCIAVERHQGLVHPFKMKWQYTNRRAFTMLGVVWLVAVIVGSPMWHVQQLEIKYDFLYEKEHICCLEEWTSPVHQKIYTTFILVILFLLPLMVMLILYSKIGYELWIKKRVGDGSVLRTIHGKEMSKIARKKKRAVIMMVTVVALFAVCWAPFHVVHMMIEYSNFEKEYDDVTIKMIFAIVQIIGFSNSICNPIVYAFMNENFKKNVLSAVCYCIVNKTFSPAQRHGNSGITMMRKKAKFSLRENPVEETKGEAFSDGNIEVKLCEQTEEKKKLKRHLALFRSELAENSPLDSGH
The experiment is described as follows: TGFα shedding assay; Exp. level WT (1:20). Type of experiment: cell-based. On the procedure: For the TGFα shedding assay and the flow cytometry analysis, we used human full-length QRFPR-encoding plasmids. Specifically, GPR103 was N-terminally modified with an HA signal sequence followed by a FLAG epitope and then a flexible linker ([…]; the FLAG epitope is underlined) and inserted into the pCAGGS vector. Plasmid encoding GPR103 mutants were generated using Quickchange Site-Directed Mutagensis kit (Agilent).
The TGFα shedding assay was performed as described previously with minor modifications. Plasmid transfection was performed in a 6-well plate with a mixture of 500 ng (per well in a 6-well plate) AP-TGFα-encoding plasmid and 200 ng GPR103-encoding plasmid. After 1-day culture, the transfected cells were harvested by trypsinization, pelleted by centrifugation at 190 × g for 5 min, and washed once with 5 mM HEPES (pH 7.4)-containing Hank’s Balanced Salt Solution (HBSS). After centrifugation, the cells were resuspended in 8 mL of the HEPES-containing HBSS. The cell suspension was seeded in a 96-well culture plate (cell plate) at a volume of 90 μL (per well hereafter) and incubated in a 37 °C incubator with 5% CO2 for 30 min. […] After spinning the cell plates at 190 × g for 2 min, 80 μL of conditioned media was transferred to an empty 96-well plate (conditioned media (CM) plate). Then, 80 μL of AP reaction solution (10 mM p-nitrophenylphosphate (p-NPP), 120 mM Tris-HCl (pH 9.5), 40 mM NaCl, and 10 mM MgCl2) was dispensed into the cell plates and the CM plates. Absorbance at 405 nm of the plates was measured using a microplate reader (SpectraMax 340 PC384, Molecular Devices) before and after 1-h incubation at room temperature. Ligand-induced AP-TGFα release was calculated by subtracting spontaneous AP-TGFα release signal from ligand-induced AP-TGFα release signal. The AP-TGFα release signals were fitted to a four-parameter sigmoidal concentration–response curve, using the Prism 10 software (GraphPad Prism). For each replicate experiment, the pEC50 parameter (negative logarithmic values of EC50 values) of the individual GPR103 mutants were normalized to that of the wild-type GPR103 performed in parallel, and resulting ∆pEC50 values were used to denote ligand response activity of the mutants. […]
Exp. le vel: WT (1:5 0)Exp. le vel: WT (1:5 0)Exp. le vel: WT (1:5 0)Exp. le vel: WT (1:2 0)Exp. le vel: WT (1:2 0)Exp. le vel: WT (1:1 0) […]
L1 4N - t e r mA F2 5N - t e r mA I 2 6N - t e r mA Y 2 9N - t e r mA C 9 82 .5 7A T10 22 .6 1A Exp . l eve l: WT (1 :5)Exp . l evel : >WT (1 :1)Exp. le vel: WT (1:2 0)Exp. le vel: WT (1:2 0)Exp. le vel: WT (1:5 0)Exp . l eve l: WT (1 :1) […]
Exp. le vel: WT (1:1 0)Exp. le vel: WT (1:2 0) C 1 1 83 .2 5AExp. le vel: WT (1:5 0)Exp. le vel: WT (1:5 0)Exp. le vel: WT (1:2 0)Exp . l eve l: WT (1 :5) […]
Exp. le vel: WT (1:5 0)Exp. le vel: WT (1:1 0)Exp. le vel: WT (1:5 0) E203ECL2AExp . l evel : >WT (1 :1)Exp. le vel: WT (1:5 0)Exp. le vel: WT (1:5 0) […]
Exp . l eve l: WT (1 :1) F28Exp. le vel: WT (1:5 0) C 2 8 56 .4 7AExp. le vel: WT (1:2 0) WExp. le vel: WT (1:2 0) F28Exp. le vel: WT (1:5 0)Exp . l evel : >WT (1 :1) […]
Exp. le vel: WT (1:5 0)Exp. le vel: WT (1:5 0) C 3 2 77 .4 8AExp . l eve l: WT (1 :5)Exp . l evel : >WT (1 :1)Exp . l evel : >WT (1 :1) […]
Suppl eme nt ary Figure 1 | Mutational analysis of GPR103. […]
mutants. Data are presented as mean values ± SEM, normally n=3-5; dots), each performed in triplicate. b-d Cell-surface expression (b) and QRFP26-in-duced activation of GPR103 (c, d) were analyzed by the flow cytometry and the TGFα shedding assay, respectively. From the concentration–response curves (a), Emax (c) and ΔpEC50 (d) values relative to the wild type were calculated. Colors in the mutant bars indicate an expression level matching to that of titrated wild type. Statistical analyses were performed using the ordinary one-way ANOVA followed by Dunnett tests with the expression-matched […]

Read-outs that look alike come from different tables or passages of the source. No end group written: not given here.

Regarding TSGPLGNLAEELNGYSRKKGGFSFRF-NH2 [QRFP26], the Emax stood at 95.50 % WT (Exp. #1); 84.01 % WT (Exp. #2); 93.81 % WT (Exp. #3); 91.1% (mean, read-out: Emax); 94 ± 2.9% (n = 3, read-out: Emax). Besides, the EC50 (n = 3) was 269 nM.
